Key:
[1] = Insulin bioassay: acid-ethanol tissue extracts injected into newborn mice, blood glucose; type: in vivo, mouse
Method: Insulin bioassay. Acid-ethanol extracts were prepared from neonatal (P3) gut, liver, and pancreas (35). Tissue extract or recombinant human insulin (Humulin R, Eli Lilly) (10 U/ml in acid-ethanol) were mixed with either insulin neutralizing antibody (Thermo Scientific) or isotype-matched mouse IgG1 (Ebiosciences) for subcutaneous injections in 50 microliters volume. Glucose was measured immediately prior to and 5 minutes after injections.
To examine whether intestinal insulin secreted by Gut Ins+ cells is bioactive, acid-ethanol extracts from NKO gut were prepared, extracts were also prepared from gut, pancreas and liver of WT mice, and injected into newborn mice. Extracts from newborn NKO intestine lowered blood glucose by about 20%, similar to pancreatic extracts from age-matched control mice or recombinant human insulin (FIG. 3C). In contrast, extracts from control intestines or liver had no effect. The ability of NKO gut extracts (reflecting the presence of Gut Ins+ cells) to lower blood glucose was preempted by the addition of an insulin-neutralizing antibody, as was pancreatic extracts from control mice and recombinant insulin.

KATP channel = KATP channel (Mus musculus, UniProt B2RUS7); settings: NKO gut segments, 1 hr; 10 nM glibenclamide or 0.5 mM diazoxide
Sequence of KATP channel (B2RUS7 1-1588): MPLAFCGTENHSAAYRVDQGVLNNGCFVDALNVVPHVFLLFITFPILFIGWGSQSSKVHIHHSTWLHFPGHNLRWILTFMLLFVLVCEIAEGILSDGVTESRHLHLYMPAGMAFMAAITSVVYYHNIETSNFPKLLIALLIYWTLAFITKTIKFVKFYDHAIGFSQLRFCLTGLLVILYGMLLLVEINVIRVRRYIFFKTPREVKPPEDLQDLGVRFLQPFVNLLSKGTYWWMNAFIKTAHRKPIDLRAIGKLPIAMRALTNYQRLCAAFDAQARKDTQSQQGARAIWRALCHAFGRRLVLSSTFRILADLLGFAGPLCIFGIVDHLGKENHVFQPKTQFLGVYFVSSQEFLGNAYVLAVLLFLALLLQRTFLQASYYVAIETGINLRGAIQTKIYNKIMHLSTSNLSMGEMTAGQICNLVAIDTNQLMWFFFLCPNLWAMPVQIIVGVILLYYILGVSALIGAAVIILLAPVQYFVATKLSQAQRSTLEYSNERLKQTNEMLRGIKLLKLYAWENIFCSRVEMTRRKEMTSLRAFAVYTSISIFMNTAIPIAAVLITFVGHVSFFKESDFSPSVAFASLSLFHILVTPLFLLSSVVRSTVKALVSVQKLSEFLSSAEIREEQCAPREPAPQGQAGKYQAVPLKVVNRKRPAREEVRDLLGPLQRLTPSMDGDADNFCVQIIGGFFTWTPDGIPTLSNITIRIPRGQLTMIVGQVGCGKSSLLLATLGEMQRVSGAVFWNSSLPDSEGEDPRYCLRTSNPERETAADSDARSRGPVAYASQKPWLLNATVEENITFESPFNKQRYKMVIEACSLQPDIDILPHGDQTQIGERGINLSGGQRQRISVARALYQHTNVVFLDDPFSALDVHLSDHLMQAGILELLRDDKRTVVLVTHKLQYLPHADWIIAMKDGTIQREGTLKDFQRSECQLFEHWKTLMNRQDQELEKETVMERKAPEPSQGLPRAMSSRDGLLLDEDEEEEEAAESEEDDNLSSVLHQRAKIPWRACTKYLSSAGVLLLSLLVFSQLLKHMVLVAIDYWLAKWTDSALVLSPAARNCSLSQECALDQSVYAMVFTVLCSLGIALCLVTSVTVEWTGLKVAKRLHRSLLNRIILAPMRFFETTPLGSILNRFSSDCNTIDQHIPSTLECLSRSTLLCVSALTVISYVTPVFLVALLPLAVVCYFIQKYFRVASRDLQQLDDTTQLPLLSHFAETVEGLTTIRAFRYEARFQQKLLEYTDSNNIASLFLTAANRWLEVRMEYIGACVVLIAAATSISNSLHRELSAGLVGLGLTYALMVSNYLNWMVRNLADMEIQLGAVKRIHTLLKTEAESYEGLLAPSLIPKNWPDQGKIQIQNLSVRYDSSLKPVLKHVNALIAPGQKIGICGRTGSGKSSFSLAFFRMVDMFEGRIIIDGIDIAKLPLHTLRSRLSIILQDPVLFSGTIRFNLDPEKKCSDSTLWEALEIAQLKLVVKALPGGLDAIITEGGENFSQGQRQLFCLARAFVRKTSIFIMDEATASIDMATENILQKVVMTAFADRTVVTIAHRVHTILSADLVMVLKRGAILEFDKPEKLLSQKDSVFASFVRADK
Sequence of KATP channel (Q61743 whole entry partner): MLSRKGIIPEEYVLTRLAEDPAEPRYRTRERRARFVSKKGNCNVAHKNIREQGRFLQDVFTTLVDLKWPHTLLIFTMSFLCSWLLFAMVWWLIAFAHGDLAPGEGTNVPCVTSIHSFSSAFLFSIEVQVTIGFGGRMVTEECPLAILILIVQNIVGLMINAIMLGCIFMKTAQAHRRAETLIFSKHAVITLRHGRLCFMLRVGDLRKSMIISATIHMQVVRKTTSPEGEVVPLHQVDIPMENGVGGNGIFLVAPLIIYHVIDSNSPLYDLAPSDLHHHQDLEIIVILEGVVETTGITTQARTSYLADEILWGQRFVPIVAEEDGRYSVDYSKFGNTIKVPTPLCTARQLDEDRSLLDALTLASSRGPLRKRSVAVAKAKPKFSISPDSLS
Method: Adult intestine was stained in medium containing 0.12 mM Dithizone (DTZ) (10) and selected 5-inches-long DTZ+ fragments from NKO mice or anatomically matched control mice. The intestines were cut open and incubated in glucose-free DMEM supplemented with 10% FBS and 20 mM glucose for 30 min. At the end of the incubation, insulin and C peptide 2 content was measured in the medium by ELISA (Millipore). Collagenase-purified pancreatic islets from 14-week-old WT mice served as controls (5).
To determine whether Ggut Ins^+ cells are functionally competent to secrete insulin, we performed ex vivo assays of insulin secretion in response to glucose and KATP channel modulators, using DTZ staining to select gut segments enriched in Ins^+ cells from NKO mice and anatomically matched segments from control mice.
Adult intestine were strained in medium containing 0.12 mM Dithizone (DTZ) (Tuttle et al Nat Med, 2001) and selected 5-inches-long DTZ+ fragments from NKO mice or anatomically matched fragments from control WT mice. […] At the end of the incubation, we measured insulin and C-peptide 2 content in the medium by ELISA (Millipore). Collagenase-purified pancreatic islets from 14-week-old WT mice served as controls (Kitamura et al., MCB 2009). Experiments were carried out using adult intestines (n=4).

Compound	lowering of blood glucose (in words) ([1]; injected into newborn mice, compared with NKO intestine extract)	ability to lower blood glucose after addition of insulin-neutralizing antibody ([1]; sample mixed with insulin-neutralizing antibody)	effect on glucose-induced insulin release from NKO gut (KATP channel)
recombinant human insulin: recombinant human insulin (Humulin R, Eli Lilly), 10 U/ml in acid-ethanol	similar	preempted	–
CC1=NS(=O)(=O)c2cc(Cl)ccc2N1 [diazoxide]	–	–	blunted

Reference: patent US10544415B2, “Methods for producing enteroendocrine cells that make and secrete insulin” (The Trustees Of Columbia University In The City Of New York, priority 2010, dated 2020)
